# In patent US11691962B2 (eXIthera Pharmaceuticals, Inc., priority 2018, dated 2023):
# Experiments:
# Format in all cases: biochemical
# Factor XIa = Factor XIa (Homo sapiens (Human), UniProt P03951); experiment: Factor XIa enzyme inhibition assay (dose response, fluorogenic AMC substrate); details: read-out: hFXIa IC50
# How it was run: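 Human FXIa at 0.25 nM final with 50 μM final PyroGlu-Pro-Arg-AMC in 20 mM Hepes pH 7.4, 150 mM NaCl, 0.02% Tween 20. Two-fold serial compound dilutions; fluorescence read every minute for 30 min at 30° C. IC50 from a four-parameter Hill fit.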
# Thrombin = Thrombin (Homo sapiens (Human), UniProt P00734); experiment: Dose response assay for protease inhibitors: thrombin; details: selectivity, thrombin over Factor XIa
# Protocol: (§1) • Assay buffer: 20 mM Hepes, pH 7.4; 150 mM NaCl; 0.02% Tween 20 • Compounds: 10 mM stocks in DMSO • Substrate: 20 mM Glp-Pro-Arg-AMC, 25 mg/2.3 mL H2O (store at +4° C.) [Factor XIa, thrombin, and trypsin] • 20 mM Pro-Phe-Arg-AMC (Bachem I-1295), 25 mg/2.2 mL H2O • or Boc-Leu-Gly-Arg-AMC (Bachem I-1105), 25 mg/2.07 mL H2O • (store at +4° C.) [Factor Xa] • Enzyme: Factor XIa; 0.25 μM in 50% glycerol (20 μg/mL) • Trypsin; 0.2 μM in 50% glycerol (4.8 μg/mL) • Thrombin; 0.2 μM in 50% glycerol (7.34 μg/mL) • Factor Xa; 0.2 μM in 50% glycerol (9.2 μg/mL) • These stocks are aliquoted (˜100 μL/aliquot) and stored at −20° C. Methods: • 1. Dilute the substrate to 100 μM in assay buffer (30 μL/6 mL). The enzyme is diluted to 0.5 nM just prior to use (12 μL/6 mL for Factor XIa; 15 μL/6 mL for all of the rest.) • 2. Pipette 50 μL of substrate into each well of the 96 well (12×8) microtiter plate. (Column 1 is used as the 100% activity control and receives no compound, and Column 12 is the blank and receives no enzyme.) Add an additional 46 μL to column 2. • 3. Pipette 4 μL of each compound into the appropriate well in column 2 of the plate (unknowns assayed in triplicate, standard assayed in duplicate). The final compound concentration will be […] of the stock. • 4. Serially two-fold dilute the compound by mixing the sample in column 2, removing 50 μL to the next well (column 3), mix and remove to column 4, etc. until column 11. After mixing column 11, remove 50 μL and discard. • 5. Pipette 50 μL of buffer into column 12. Initiate the reaction by adding 50 μL of enzyme solution to each well of columns 1-11 as rapidly as possible. • 6. Read the plate in a spectrophotometer (SpectraMax) at 30° C., wherein each well is measured every 60 s for 30 min. For Factor Xa assays, each well is measured every 1 min for a total of 60 min. • 7. For Factor XIa assays, the compounds are assayed, in duplicate, at 3 different starting concentrations, 20, 2, and 0.2 μM; 1:10, 1:100, and 1:1000 dilution of 10 mM stock or at 2, 0.2, and 0.02 μM; 1:100, 1:1000, and 1:10,000 dilution of 10 mM stock. Data for each concentration are combined for graphing and data fitting. • 8. Data can be used both for estimation of IC50 and for estimation of Kon.
# Factor Xa = Factor Xa (Homo sapiens (Human), UniProt P00742); experiment: Dose response assay for protease inhibitors: Factor Xa; details: selectivity, Factor Xa over Factor XIa
# Chain of Factor Xa (P00742 235-488): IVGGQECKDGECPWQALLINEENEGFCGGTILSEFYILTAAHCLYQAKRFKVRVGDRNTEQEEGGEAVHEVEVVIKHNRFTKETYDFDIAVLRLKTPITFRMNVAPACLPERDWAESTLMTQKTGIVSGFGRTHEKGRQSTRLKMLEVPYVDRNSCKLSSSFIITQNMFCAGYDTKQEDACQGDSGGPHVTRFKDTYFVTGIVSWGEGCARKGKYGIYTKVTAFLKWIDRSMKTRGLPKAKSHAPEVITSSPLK
# Chain of Factor Xa (P00742 41-179 partner): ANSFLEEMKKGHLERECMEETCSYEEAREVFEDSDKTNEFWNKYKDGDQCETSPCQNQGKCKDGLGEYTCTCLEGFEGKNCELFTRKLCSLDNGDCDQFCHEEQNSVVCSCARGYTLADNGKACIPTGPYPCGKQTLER
# Protocol: as §1
# Trypsin = experiment: Dose response assay for protease inhibitors: trypsin; details: selectivity, trypsin over Factor XIa
# Protocol: as §1
# Chain of Factor XIa (P03951 388-625): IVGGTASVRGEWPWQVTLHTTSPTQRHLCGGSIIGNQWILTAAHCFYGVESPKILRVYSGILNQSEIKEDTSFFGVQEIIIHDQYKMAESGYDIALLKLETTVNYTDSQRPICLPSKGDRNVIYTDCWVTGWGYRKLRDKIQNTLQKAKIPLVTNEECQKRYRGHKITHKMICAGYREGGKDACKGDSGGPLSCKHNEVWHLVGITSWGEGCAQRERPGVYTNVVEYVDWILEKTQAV
# Chain of Factor XIa (P03951 19-387 partner): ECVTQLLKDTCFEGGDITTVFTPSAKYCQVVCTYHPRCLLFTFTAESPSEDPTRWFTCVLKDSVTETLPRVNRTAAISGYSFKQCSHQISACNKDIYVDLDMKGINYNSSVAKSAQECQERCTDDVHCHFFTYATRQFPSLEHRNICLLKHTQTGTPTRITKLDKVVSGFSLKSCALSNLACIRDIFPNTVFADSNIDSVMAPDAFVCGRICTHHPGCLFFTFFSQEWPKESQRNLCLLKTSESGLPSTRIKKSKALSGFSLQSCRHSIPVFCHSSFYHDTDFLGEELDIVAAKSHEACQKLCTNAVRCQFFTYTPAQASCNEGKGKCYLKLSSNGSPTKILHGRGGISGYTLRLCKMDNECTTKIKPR
SMILES,IC50 (Factor XIa) [µM],Ratio: Thrombin/FXIa (Thrombin),Ratio: FXa/FXIa (Factor Xa),Ratio: Trypsin/FXIa (Trypsin)
"CCc1cccc([C@@H](CC)NC(=O)N2C(=O)[C@H](Cc3ccnc(N)c3)[C@H]2C(=O)N(C)c2cnn(C)c2)c1 [Compound 1-16, (2S,3R)-3-((2-aminopyridin-4-yl)methyl)-N2-(1-methyl-1H-pyrazol-4-yl)-N1-((R)-1-(3-ethylphenyl)propyl)-N2-methyl-4-oxoazetidine-1,2-dicarboxamide]",< 0.01,G (“G” indicates 1-100),H (“H” indicates 101-1000),G (“G” indicates 1-100)
"CC[C@@H](NC(=O)N1C(=O)[C@H](Cc2ccnc(N)c2)[C@H]1C(=O)N(C)c1cnsc1)c1ccccc1 [Compound 1-19, (2S,3R)-3-((2-aminopyridin-4-yl)methyl)-N2-(4-isothiazolyl)-N1-((R)-1-phenylpropyl)-N2-methyl-4-oxoazetidine-1,2-dicarboxamide]",< 0.01,G (“G” indicates 1-100),H (“H” indicates 101-1000),G (“G” indicates 1-100)
"CC[C@@H](NC(=O)N1C(=O)[C@H](Cc2ccnc(N)c2)[C@H]1C(=O)N(C)c1cn(C)cn1)c1cccc(Cl)c1 [Compound 1-25, (2S,3R)-3-((2-aminopyridin-4-yl)methyl)-N2-(1-methyl-1H-imidazol-4-yl)-N1-((R)-1-(3-chlorophenyl)propyl)-N2-methyl-4-oxoazetidine-1,2-dicarboxamide]",< 0.01,G (“G” indicates 1-100),H (“H” indicates 101-1000),G (“G” indicates 1-100)
"CN(C(=O)[C@@H]1[C@@H](Cc2ccnc(N)c2)C(=O)N1C(=O)NCc1cccc(Cl)c1)c1ccn(C)n1 [Compound 1-26, (2S,3R)-3-((2-aminopyridin-4-yl)methyl)-N2-(1-methyl-1H-pyrazol-3-yl)-N1-((3-chlorophenyl)methyl)-N2-methyl-4-oxoazetidine-1,2-dicarboxamide]",0.01 to 0.1,G (“G” indicates 1-100),H (“H” indicates 101-1000),G (“G” indicates 1-100)
"CC[C@@H](NC(=O)N1C(=O)[C@H](Cc2ccnc(N)c2)[C@H]1C(=O)N(C)c1cccs1)c1cccc(Cl)c1 [Compound 1-28, (2S,3R)-3-((2-aminopyridin-4-yl)methyl)-N2-(thiophen-2-yl)-N1-((R)-1-(3-chlorophenyl)propyl)-N2-methyl-4-oxoazetidine-1,2-dicarboxamide]",< 0.01,H (“H” indicates 101-1000),G (“G” indicates 1-100),G (“G” indicates 1-100)
"CN(C(=O)[C@@H]1[C@@H](Cc2ccnc(N)c2)C(=O)N1C(=O)N[C@@H](c1ccccc1)C(F)(F)F)c1ccn(C)n1 [Compound 1-31, (2S,3R)-3-((2-aminopyridin-4-yl)methyl)-N2-(1-methyl-1H-pyrazol-3-yl)-N1-((S)-1-phenyl-2,2,2-trifluoroethyl)-N2-methyl-4-oxoazetidine-1,2-dicarboxamide]",0.01 to 0.1,G (“G” indicates 1-100),H (“H” indicates 101-1000),G (“G” indicates 1-100)
"CC[C@@H](NC(=O)N1C(=O)[C@H](Cc2ccnc(NC)c2)[C@H]1C(=O)N(C)c1ccn(C)n1)c1cccc(Cl)c1 [Compound 1-37, (2S,3R)-3-((2-methylaminopyridin-4-yl)methyl)-N2-(1-methyl-1H-pyrazol-3-yl)-N1-((R)-1-(3-chlorophenyl)propyl)-N2-methyl-4-oxoazetidine-1,2-dicarboxamide]",0.01 to 0.1,H (“H” indicates 101-1000),H (“H” indicates 101-1000),G (“G” indicates 1-100)
"CC[C@@H](NC(=O)N1C(=O)[C@H](Cc2ccnc(NC)c2)[C@H]1C(=O)N(C)c1cccs1)c1cccc(Cl)c1 [Compound 1-44, (2S,3R)-3-((2-methylaminopyridin-4-yl)methyl)-N2-(thiophen-2-yl)-N1-((R)-1-(3-chlorophenyl)propyl)-N2-methyl-4-oxoazetidine-1,2-dicarboxamide]",< 0.01,H (“H” indicates 101-1000),H (“H” indicates 101-1000),G (“G” indicates 1-100)
"CC[C@@H](NC(=O)N1C(=O)[C@H](Cc2cc(C)nc(N)c2)[C@H]1C(=O)N(C)c1cn(C)cn1)c1ccccc1 [Compound 1-52, (2S,3R)-3-((2-amino-6-methylpyridin-4-yl)methyl)-N2-(1-methyl-1H-imidazol-4-yl)-N1-((R)-1-phenylpropyl)-N2-methyl-4-oxoazetidine-1,2-dicarboxamide]",0.01 to 0.1,G (“G” indicates 1-100),H (“H” indicates 101-1000),G (“G” indicates 1-100)
"CC[C@@H](NC(=O)N1C(=O)[C@H](Cc2ccnc(N)c2)[C@H]1C(=O)N(C)c1cnn(C)c1)C1CCCCC1 [Compound 1-69, (2S,3R)-3-((2-aminopyridin-4-yl)methyl)-N2-(1-methyl-1H-pyrazol-4-yl)-N1-((R)-1-cyclohexylpropyl)-N2-methyl-4-oxoazetidine-1,2-dicarboxamide]",0.01 to 0.1,G (“G” indicates 1-100),H (“H” indicates 101-1000),G (“G” indicates 1-100)
"CC[C@@H](NC(=O)N1C(=O)[C@H](Cc2ccnc(N)c2)[C@H]1C(=O)N(C)c1cn(C)cn1)C1CCCCC1 [Compound 1-71, (2S,3R)-3-((2-aminopyridin-4-yl)methyl)-N2-(1-methyl-1H-imidazol-4-yl)-N1-((R)-1-cyclohexylpropyl)-N2-methyl-4-oxoazetidine-1,2-dicarboxamide]",< 0.01,G (“G” indicates 1-100),I (“I” indicates > 500),G (“G” indicates 1-100)
"CC[C@@H](NC(=O)N1C(=O)[C@H](Cc2cc(C)nc(NC)c2)[C@H]1C(=O)N(C)c1cn(C)cn1)c1ccccc1 [Compound 1-72, (2S,3R)-3-((2-methylamino-6-methylpyridin-4-yl)methyl)-N2-(1-methyl-1H-imidazol-4-yl)-N1-((R)-1-phenylpropyl)-N2-methyl-4-oxoazetidine-1,2-dicarboxamide]",0.01 to 0.1,G (“G” indicates 1-100),H (“H” indicates 101-1000),G (“G” indicates 1-100)
